Source: patent US11661419B2, “Benzimidazole derivative compounds and uses thereof” (Pfizer Inc., priority 2019, dated 2023)

Each compound was assayed against Tropomyosin receptor kinase A (TRKA, NTRK1) (Homo sapiens (Human), UniProt P04629) (assay: TRKA (NTRK1) enzyme Z'-LYTE assay). Conditions: arithmetic mean of count n; test compound 1 uM, ATP 1 mM.
Type: biochemical
Procedure: Tropomyosin Receptor Kinase a (TRKA) Activity, % Inhibition
TRKA, also known as neurotrophic tyrosine kinase receptor type 1 (NTKR1) activity was determined by measuring the effect of a test compound on the activity against the NTRK1 enzyme using the ThermoFisher Z'-LYTE Assay fluorescence-based coupled enzyme format (www.thermofisher.com/selectscreen). […] The resulting effect value for the tested compound was compared to the assay controls to determine the % inhibition (%).

Sequence of Tropomyosin receptor kinase A (TRKA, NTRK1) (P04629 33-796): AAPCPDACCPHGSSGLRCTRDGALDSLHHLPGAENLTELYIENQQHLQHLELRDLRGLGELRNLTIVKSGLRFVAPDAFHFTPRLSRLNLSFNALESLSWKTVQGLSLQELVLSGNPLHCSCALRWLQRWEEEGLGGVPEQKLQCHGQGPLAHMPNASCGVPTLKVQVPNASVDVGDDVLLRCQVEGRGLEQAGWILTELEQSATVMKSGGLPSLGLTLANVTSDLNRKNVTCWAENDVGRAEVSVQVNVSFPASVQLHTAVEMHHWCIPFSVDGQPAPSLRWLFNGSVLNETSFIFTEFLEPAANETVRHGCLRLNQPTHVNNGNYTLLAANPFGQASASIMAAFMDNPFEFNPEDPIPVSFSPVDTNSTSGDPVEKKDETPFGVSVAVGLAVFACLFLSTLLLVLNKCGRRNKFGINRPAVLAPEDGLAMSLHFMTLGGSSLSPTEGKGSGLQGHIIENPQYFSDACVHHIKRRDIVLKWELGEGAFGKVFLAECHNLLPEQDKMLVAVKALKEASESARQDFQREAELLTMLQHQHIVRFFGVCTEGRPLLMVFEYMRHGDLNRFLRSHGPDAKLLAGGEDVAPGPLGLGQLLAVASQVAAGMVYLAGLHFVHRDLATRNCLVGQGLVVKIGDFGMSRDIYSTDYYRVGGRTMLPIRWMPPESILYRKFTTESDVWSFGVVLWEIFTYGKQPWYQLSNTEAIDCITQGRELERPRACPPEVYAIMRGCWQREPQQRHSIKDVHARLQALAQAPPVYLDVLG

SMILES | inhibition at 1 µM
C[C@@H](C(=O)N(C)c1cc(F)c2[nH]c(-c3n[nH]c4c3C[C@@H]3C[C@]3(C)C4)nc2c1)C1CCOCC1 [Example 12, (R)—N-(7-fluoro-2-((4aS,5aR)-5a-methyl-1,4,4a,5,5a,6-hexahydrocyclopropa[f]indazol-3-yl)-1H-benzo[d]imidazol-5-yl)-N-methyl-2-(tetrahydro-2H-pyran-4-yl)propanamide] | 94%

What follows are compounds tested on IL-2 in activated CD4+ human T-cells (assay: IL-2 inhibition in supernatants from activated CD4+ human T-cells (cisbio HTRF)). Conditions: T-cell; geometric mean of count n; CD3/CD28-expanded human CD4+ T cells stimulated with ImmunoCult, 20 to 24 hrs.
Type: cell-based
Procedure: IL-2-Inhibition Activity, IC50 (uM)
IL-2 inhibition activity in supernatants from activated CD4+ human T-cells was determined by measuring the effect of a test compound on the activity using the cisbio HTRF™ technology.
Human CD4+ T cells were activated with CD3/CD28 for 3 days and expanded for an additional 4-6 days (7 to 9 days total). On day 0, frozen CD4+ T cells were thawed, treated with CD3/CD28 Dynabeads, and incubated at 37° C./5% CO2. On day 3, the beads were removed, and the cells were diluted to 5×10^5 cells/cm^2, placed in G-Rex10 flask, and incubated at 37° C./5% CO2. On day 7 to day 9 the cells were removed from the G-Rex flasks, counted and diluted back to 1×10^6 cells/ml in standard tissue culture flask.
The expanded CD4+ T-cells were centrifuged at 300×g for 10 minutes and resuspended to 0.5 million cells per ml (30,000 cells/well). 60 μl of CD4+ T cells were added per well to a 384 well plate containing 0.1 μL of varying concentrations of test compound in DMSO. The plates were incubated for 15 min at 37° C./5% CO2. 20 μl of diluted ImmunoCult™ ([…] Technologies, 1:12.5 in T cell assay media) were added to all wells of the plate (1:50 final assay concentration). The plates were incubated for an additional 20 to 24 hrs at 37° C./5% CO2. The plates were centrifuged at 300×g for 10 minutes. 16 μL of supernatant was removed and combined with 4 μl of IL-2 HTRF Abs. (cisbio kit). Plates were incubated for 3 hours at RT and read with an EnVision plate reader at 665 nm and 615 nm wavelengths.

SMILES | IC50
C[C@@H](C(=O)N(C)c1cc(F)c2[nH]c(-c3n[nH]c4c3C[C@@H]3C[C@]3(C)C4)nc2c1)C1CCOCC1 [Example 12, (R)—N-(7-fluoro-2-((4aS,5aR)-5a-methyl-1,4,4a,5,5a,6-hexahydrocyclopropa[f]indazol-3-yl)-1H-benzo[d]imidazol-5-yl)-N-methyl-2-(tetrahydro-2H-pyran-4-yl)propanamide] | 25 nM
Cc1cc2[nH]c(-c3n[nH]c4c3C[C@@H]3C(F)(F)[C@]3(C)C4)nc2cc1N(C)C(=O)[C@H](C)N1CCOCC1 [Example 53, (S)—N-(2-((4aS,5aR)-5,5-difluoro-5a-methyl-1,4,4a,5,5a,6-hexahydrocyclopropa[f]indazol-3-yl)-5-methyl-1H-benzo[d]imidazol-6-yl)-N-methyl-2-morpholinopropanamide] | 10 nM
Cc1c(N(C)C(=O)[C@H](C)N2CCOCC2)cc2nc(-c3n[nH]c4c3C[C@@H]3C[C@]3(C)C4)[nH]c2c1F [Example 46, (S)—N-(7-fluoro-6-methyl-2-((4aS,5aR)-5a-methyl-1,4,4a,5,5a,6-hexahydrocyclopropa[f]indazol-3-yl)-1H-benzo[d]imidazol-5-yl)-N-methyl-2-morpholinopropanamide] | 47 nM
C[C@@H](C(=O)N(C)c1cc(F)c2[nH]c(-c3n[nH]c4c3C[C@@H]3C[C@]3(C)C4)nc2c1)N1CCOCC1=O [Example 22, (S)—N-(7-fluoro-2-((4aS,5aR)-5a-methyl-1,4,4a,5,5a,6-hexahydrocyclopropa[f]indazol-3-yl)-1H-benzo[d]imidazol-5-yl)-N-methyl-2-(3-oxomorpholino)propanamide] | 340 nM
Cc1cc2[nH]c(-c3n[nH]c4c3C[C@@H]3C[C@]3(C)C4)nc2cc1N(C)C(=O)CN1CCO[C@H](C)C1 [Example 30, N-Methyl-N-(6-methyl-2-((4aS,5aR)-5a-methyl-1,4,4a,5,5a,6-hexahydrocyclopropa[f]indazol-3-yl)-1H-benzo[d]imidazol-5-yl)-2-((R)-2-methylmorpholino)acetamide] | 82 nM
Cc1cc2[nH]c(-c3n[nH]c4c3C[C@@H]3C[C@]3(C)C4)nc2cc1N(C)C(=O)CC1CCOCC1 [Example 35, N-Methyl-N-(6-methyl-2-((4aS,5aR)-5a-methyl-1,4,4a,5,5a,6-hexahydrocyclopropa[f]indazol-3-yl)-1H-benzo[d]imidazol-5-yl)-2-(tetrahydro-2H-pyran-4-yl)acetamide] | 50 nM
CN(C(=O)C(F)(F)C1CCOCC1)c1ccc2[nH]c(-c3n[nH]c4c3C[C@@H]3C[C@]3(C)C4)nc2c1 [Example 11, 2,2-difluoro-N-methyl-N-(2-((4aS,5aR)-5a-methyl-1,4,4a,5,5a,6-hexahydrocyclopropa[f]indazol-3-yl)-1H-benzo[d]imidazol-5-yl)-2-(tetrahydro-2H-pyran-4-yl)acetamide] | 34 nM
Cc1cc2[nH]c(-c3n[nH]c4c3C[C@@H]3C[C@]3(C)C4)nc2cc1N(C)C(=O)CN1CCOC(CO)C1 (stereo partly drawn) [Example 27, 2-(2-(Hydroxymethyl)morpholino)-N-methyl-N-(6-methyl-2-((4aS,5aR)-5a-methyl-1,4,4a,5,5a,6-hexahydrocyclopropa[f]indazol-3-yl)-1H-benzo[d]imidazol-5-yl)acetamide] | 289 nM
C[C@@H](C(=O)N(C)c1cc2nc(-c3n[nH]c4c3C[C@@H]3C[C@]3(C)C4)[nH]c2cc1F)N1CCOCC1 [Example 17, (S)—N-(6-fluoro-2-((4aS,5aR)-5a-methyl-1,4,4a,5,5a,6-hexahydrocyclopropa[f]indazol-3-yl)-1H-benzo[d]imidazol-5-yl)-N-methyl-2-morpholinopropanamide] | 45 nM
C[C@@H](C(=O)N(C)c1cc(O)c2[nH]c(-c3n[nH]c4c3C[C@@H]3C[C@]3(C)C4)nc2c1)N1CCOCC1 [Example 39, (S)—N-(7-hydroxy-2-((4aS,5aR)-5a-methyl-1,4,4a,5,5a,6-hexahydrocyclopropa[f]indazol-3-yl)-1H-benzo[d]imidazol-5-yl)-N-methyl-2-morpholinopropanamide] | 82 nM
Cc1cc2[nH]c(-c3n[nH]c4c3C[C@@H]3C[C@]3(C)C4)nc2cc1N(C)C(=O)CN1CCOC(C)(C)C1 [Example 29, 2-(2,2-Dimethylmorpholino)-N-methyl-N-(6-methyl-2-((4aS,5aR)-5a-methyl-1,4,4a,5,5a,6-hexahydrocyclopropa[f]indazol-3-yl)-1H-benzo[d]imidazol-5-yl)acetamide] | 58 nM
CN(C(=O)CC1CCOCC1)c1cc2nc(-c3n[nH]c4c3C[C@@H]3C[C@]3(C)C4)[nH]c2cc1C#N [Example 54, N-(6-cyano-2-((4aS,5aR)-5a-methyl-1,4,4a,5,5a,6-hexahydrocyclopropa[f]indazol-3-yl)-1H-benzo[d]imidazol-5-yl)-N-methyl-2-(tetrahydro-2H-pyran-4-yl)acetamide] | 4570 nM
C[C@H](C(=O)N(C)c1cc(F)c2[nH]c(-c3n[nH]c4c3C[C@@H]3C[C@]3(C)C4)nc2c1)N1CCOCC1=O [Example 23, (R)—N-(7-fluoro-2-((4aS,5aR)-5a-methyl-1,4,4a,5,5a,6-hexahydrocyclopropa[f]indazol-3-yl)-1H-benzo[d]imidazol-5-yl)-N-methyl-2-(3-oxomorpholino)propanamide] | 304 nM
Cc1cc2[nH]c(-c3n[nH]c4c3C[C@@H]3C[C@]3(C)C4)nc2cc1N(C)C(=O)CN1C[C@H](C)O[C@@H](C)C1 [Example 33, 2-((2S,6S)-2,6-Dimethylmorpholino)-N-methyl-N-(6-methyl-2-((4aS,5aR)-5a-methyl-1,4,4a,5,5a,6-hexahydrocyclopropa[f]indazol-3-yl)-1H-benzo[d]imidazol-5-yl)acetamide] | 68 nM
C[C@H](C(=O)N(C)c1ccc2[nH]c(-c3n[nH]c4c3C[C@@H]3C[C@]3(C)C4)nc2c1)C1CCOCC1 [Example 9, (S)—N-methyl-N-(2-((4aS,5aR)-5a-methyl-1,4,4a,5,5a,6-hexahydrocyclopropa[f]indazol-3-yl)-1H-benzo[d]imidazol-5-yl)-2-(tetrahydro-2H-pyran-4-yl)propanamide] | 99 nM
CCc1cc2[nH]c(-c3n[nH]c4c3C[C@@H]3C[C@]3(C)C4)nc2cc1N(C)C(=O)[C@H](C)N1CCOCC1 [Example 18, (S)—N-(6-ethyl-2-((4aS,5aR)-5a-methyl-1,4,4a,5,5a,6-hexahydrocyclopropa[f]indazol-3-yl)-1H-benzo[d]imidazol-5-yl)-N-methyl-2-morpholinopropanamide] | 91 nM
CC(C(=O)N(C)c1ccc2[nH]c(-c3n[nH]c4c3C[C@@H]3C[C@]3(C)C4)nc2c1)C1CCOCC1 (stereo partly drawn) [Example 8, N-methyl-N-(2-((4aS,5aR)-5a-methyl-1,4,4a,5,5a,6-hexahydrocyclopropa[f]indazol-3-yl)-1H-benzo[d]imidazol-5-yl)-2-(tetrahydro-2H-pyran-4-yl)propanamide] | 26 nM
Cc1cc2[nH]c(-c3n[nH]c4c3C[C@@H]3C[C@]3(C)C4)nc2cc1N(C)C(=O)CN1CCOCC1=O [Example 36, N-Methyl-N-(6-methyl-2-((4aS,5aR)-5a-methyl-1,4,4a,5,5a,6-hexahydrocyclopropa[f]indazol-3-yl)-1H-benzo[d]imidazol-5-yl)-2-(3-oxomorpholino)acetamide] | 96 nM
C[C@@H](C(=O)N(C)c1ccc2[nH]c(-c3n[nH]c4c3C[C@@H]3C[C@]3(C)C4)nc2c1)C1CCOCC1 [Example 7, (R)—N-methyl-N-(2-((4aS,5aR)-5a-methyl-1,4,4a,5,5a,6-hexahydrocyclopropa[f]indazol-3-yl)-1H-benzo[d]imidazol-5-yl)-2-(tetrahydro-2H-pyran-4-yl)propanamide] | 13 nM
Cc1cc2[nH]c(-c3n[nH]c4c3C[C@@H]3C[C@]3(C)C4)nc2cc1N(C)C(=O)C(C)C1CCOCC1 (stereo partly drawn) [Example 5, N-methyl-N-(6-methyl-2-((4aS,5aR)-5a-methyl-1,4,4a,5,5a,6-hexahydrocyclopropa[f]indazol-3-yl)-1H-benzo[d]imidazol-5-yl)-2-(tetrahydro-2H-pyran-4-yl)propanamide] | 27 nM
Cc1cc2[nH]c(-c3n[nH]c4c3C[C@@H]3C[C@]3(C)C4)nc2cc1N(C)C(=O)CN1CCO[C@@H](CO)C1 [Example 28, 2-((R)-2-(Hydroxymethyl)morpholino)-N-methyl-N-(6-methyl-2-((4aS,5aR)-5a-methyl-1,4,4a,5,5a,6-hexahydrocyclopropa[f]indazol-3-yl)-1H-benzo[d]imidazol-5-yl)acetamide] | 305 nM
